Measurements taken from EP0491828B1, “PEPTIDES FROM GTPase-ACTIVATING PROTEIN (GAP), DIAGNOSTIC AND THERAPEUTIC USE THEREOF” (CHIRON CORPORATION, priority 1989, dated 1999).

How the values were obtained:
ras p21 protein [1] = experiment: Filter assay of GTP hydrolysis by ras p21 protein (32-P gamma-GTP), with and without GAP; assay type: biochemical; conditions: in the presence and absence of GAP; 30 minutes at room temperature
Method: The above four peptides, in the following two experiments, were tested for their abilities to inhibit the hydrolysis of GTP by ras p21 protein, in the presence and absence of GAP. The first experiment involved peptides G65, G73 and 891. It was carried out as follows: purified wild type ras p21 protein was incubated with 0.25 µM 32-P gamma-GTP in 100 mM NaPO4, pH 6.8, 0.5 mM DTT, 0.5 mM EDTA, 0.005% Na cholate, and 0.5 mg/ml BSA for 15 minutes at 30°C. The mixture was then diluted ten fold with TNM buffer (comprising 20 mM Tris-HCl, pH 7.0, 100 mM NaCl, 5 mM MgCl2). 20 µl (0.05 µg of p21) of this mixture was then combined with 2 µl of the peptide in 25 mM NaOAc, pH 5.5 and incubated for 5 minutes at room temperature. The GAP assay, was initiated by the addition of 12 ng GAP in 5 µl TNM buffer with 1 mg/ml BSA or 5 µl TNM BSA buffer for the GAP independent reactions, and the resulting mixture was incubated for 30 minutes at room temperature. The samples were then filtered through nitrocellulose membranes and washed three times with cold TNM. The filters were dried and their radioactivity counted. […] In the presence of GAP, the radioactive ras p21-GTP complex is hydrolyzed to GDP and ras p21 protein, thus reducing the resulting amount of radioactive p21-GTP bound to the filter and consequently, the radioactive counts detected. […]

ras p21 protein [2] = experiment: GDP/GTP ratio assay of p21-GTP hydrolysis (alpha-32-P-GTP, PEI cellulose chromatography), with and without GAP; assay type: biochemical; conditions: in the presence of GAP; control peptide, no concentration stated
Method: Another experiment comparing the efficacy of cGAP 13 and peptide 891 in preventing the hydrolysis of GTP was carried out as follows. The assay measured the ratio of GDP formed resulting from the hydrolysis of GTP to the remaining GTP in the assay solution. Peptides 891, cGAP 13, and G65 were separately tested in the presence and absence of GAP, Peptide G65, which served as a control, and α-32-P-GTP were used.
The assay was carried out as follows. The p21-GTP was diluted at a ratio of 1 to 10 in an assay buffer consisting of TNM at pH 7.0, 1mM DTT, and 100 µM GTP. A mixture consisting of 20 λ of p21 at 0.25 µM, and 2 λ of the peptide (in TNM, 1mM DTT and 100 µM GTP) was prepared. To this mixture was added 5 λ, i.e. 12ng of GAP diluted in TNM and 1 mg/ml BSA; for experiments without GAP, 5λ TNM/BSA were added instead. The resulting mixture was incubated for 30 minutes at room temperature. The reaction was stopped and the nucleotides were eluted from ras p21 protein with 2% SDS, 40 mM EDTA at 65°C for 5 minutes. The nucleotides were chromatographed on PEI Cellulose in 1M LiCl. GTP and GDP spots were visualized with autoradiography and identified by means of standard solutions. The individual spots from the PEI cellulose plates were scraped and the radioactivity counted.

Substance | hydrolysis of GTP by ras p21 protein (radioactive counts per minute of ras p21-GTP complex on filter) (ras p21 protein [1]) | hydrolysis of p21-GTP (ratio of radioactive counts of GDP over GTP) (ras p21 protein [2])
peptide G65: synthetic peptide corresponding to positions 876-890 of the full length GAP; served as a control (CLQKSVQHKWPTNTT; UniProt P20936 876-890, looked up, fragment) | do not affect the hydrolysis of GTP | exhibits no inhibitory effect on p21-GTP hydrolysis
peptide G73: synthetic peptide corresponding to positions 975-990 of the full length GAP (GNVPELPDTTEHSRTD; UniProt P20936 975-990, looked up, fragment) | do not affect the hydrolysis of GTP | –
